The text below walks through data of ChEMBL document CHEMBL4507276 (2021).

Data set [1] concerns the target 5-hydroxytryptamine receptor 1B (Rattus norvegicus) (UniProt P28564). Briefly: 5HT1B/R Cerep selectivity data (BI). Particulars: Compound concentration 20.0 uM; call rule not given here.
Data set [2] addresses Guanylate cyclase soluble subunit alpha-1 (Bos taurus) (UniProt P19687). Briefly: GUACYCBASAL Cerep selectivity data (BI). As to conditions: Homo sapiens; Compound concentration 20.0 uM.
Data set [3] has as its target Vasopressin V2 receptor (Homo sapiens) (UniProt P30518). Briefly: V2/H Cerep selectivity data (BI). As to conditions: Compound concentration 20.0 uM.
The target of data set [4] is Adenosine receptor A1 (Homo sapiens) (UniProt P30542). Briefly: A1/HU Eurofins-Panlabs selectivity data (BI). Particulars: Compound concentration 10.0 uM.
For data set [5], the target named is L-type Ca2+ channel (DHP site), Cav1.2 alpha-1C (Rattus norvegicus, UniProt P22002). Briefly: CA+/DHPSI/RA Eurofins-Panlabs selectivity data (BI). Particulars: compound concentration 10 uM, read-out: % Ctrl.
For data set [6], the target named is Estrogen receptor (Homo sapiens) (UniProt P03372). Kind of data set: ERALPHA/H Eurofins-Panlabs selectivity data (BI). As to conditions: Compound concentration 10.0 uM.
The target of data set [7] is Kappa-type opioid receptor (Homo sapiens) (UniProt P41145). Briefly: KAPPA/HU Eurofins-Panlabs selectivity data (BI). Particulars: Compound concentration 10.0 uM.
In data set [8] the target is Tyrosine-protein kinase ABL2 (Homo sapiens) (UniProt P42684). Kind of data set: ABL2 Invitrogen selectivity data (BI). As to conditions: Compound concentration 3.0 uM.
Data set [9] concerns the target RAC-beta serine/threonine-protein kinase (Homo sapiens) (UniProt P31751). Briefly: AKT2 Invitrogen selectivity data (BI). Particulars: Compound concentration 3.0 uM.
The target of data set [10] is Death-associated protein kinase 1 (Homo sapiens) (UniProt P53355). Kind of data set: DAPK1 Invitrogen selectivity data (BI). As to conditions: Compound concentration 3.0 uM.
Data set [11] has as its target Interleukin-1 receptor-associated kinase 1 (Homo sapiens) (UniProt P51617). Kind of data set: IRAK1 Invitrogen selectivity data (BI). Particulars: Compound concentration 3.0 uM.
Data set [12] deals with Mitogen-activated protein kinase kinase kinase 14 (Homo sapiens) (UniProt Q99558). Briefly: MAP3K14 Invitrogen selectivity data (BI). Particulars: Compound concentration 3.0 uM.
Data set [13] concerns the target T1, Serine/threonine-protein kinase Nek1 (Homo sapiens) (UniProt Q96PY6).
T1 sequence (whole entry): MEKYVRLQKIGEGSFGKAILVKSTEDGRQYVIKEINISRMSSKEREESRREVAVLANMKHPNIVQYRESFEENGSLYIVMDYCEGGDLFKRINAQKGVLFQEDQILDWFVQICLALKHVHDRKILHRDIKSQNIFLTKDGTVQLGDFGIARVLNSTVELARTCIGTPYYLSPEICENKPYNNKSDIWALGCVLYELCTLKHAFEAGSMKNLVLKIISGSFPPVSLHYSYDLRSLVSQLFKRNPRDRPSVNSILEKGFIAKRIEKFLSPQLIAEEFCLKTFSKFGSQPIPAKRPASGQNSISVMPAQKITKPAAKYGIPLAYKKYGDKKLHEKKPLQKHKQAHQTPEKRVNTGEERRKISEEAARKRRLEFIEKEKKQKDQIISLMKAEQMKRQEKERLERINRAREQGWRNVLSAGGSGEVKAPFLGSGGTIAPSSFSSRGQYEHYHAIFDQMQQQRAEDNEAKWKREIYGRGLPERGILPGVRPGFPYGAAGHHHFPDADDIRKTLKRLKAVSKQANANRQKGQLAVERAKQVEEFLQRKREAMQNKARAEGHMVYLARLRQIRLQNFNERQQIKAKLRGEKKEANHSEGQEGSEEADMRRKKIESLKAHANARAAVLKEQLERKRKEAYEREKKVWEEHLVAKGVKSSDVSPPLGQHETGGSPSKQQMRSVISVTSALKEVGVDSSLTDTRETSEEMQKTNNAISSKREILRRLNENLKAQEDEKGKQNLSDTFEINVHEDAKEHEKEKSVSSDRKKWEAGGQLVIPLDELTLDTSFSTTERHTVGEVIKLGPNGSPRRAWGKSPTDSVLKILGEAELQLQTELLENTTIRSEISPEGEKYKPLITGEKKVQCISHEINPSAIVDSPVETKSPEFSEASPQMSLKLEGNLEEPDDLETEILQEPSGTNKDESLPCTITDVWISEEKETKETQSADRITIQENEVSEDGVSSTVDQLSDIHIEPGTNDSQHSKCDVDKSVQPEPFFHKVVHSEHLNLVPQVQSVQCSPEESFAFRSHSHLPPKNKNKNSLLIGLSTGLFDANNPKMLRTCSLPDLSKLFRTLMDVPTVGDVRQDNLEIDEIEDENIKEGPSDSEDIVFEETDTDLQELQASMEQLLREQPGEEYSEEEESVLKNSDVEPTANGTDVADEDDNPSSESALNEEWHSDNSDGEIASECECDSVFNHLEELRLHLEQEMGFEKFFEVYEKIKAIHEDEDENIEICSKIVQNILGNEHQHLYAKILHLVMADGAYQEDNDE
Briefly: NEK1 Invitrogen selectivity data (BI). As to conditions: Compound concentration 3.0 uM.

Data set [14] addresses Receptor-interacting serine/threonine-protein kinase 2 (Homo sapiens) (UniProt O43353). Kind of data set: RIPK2 Invitrogen selectivity data (BI). Particulars: Compound concentration 3.0 uM.
Data set [15] deals with Proto-oncogene tyrosine-protein kinase Src (Homo sapiens) (UniProt P12931). Kind of data set: SRC N1 Invitrogen selectivity data (BI). Particulars: Compound concentration 3.0 uM.
Data set [16] addresses T2, Tyrosine-protein kinase Tec (Homo sapiens) (UniProt P42680).
T2 sequence (whole entry): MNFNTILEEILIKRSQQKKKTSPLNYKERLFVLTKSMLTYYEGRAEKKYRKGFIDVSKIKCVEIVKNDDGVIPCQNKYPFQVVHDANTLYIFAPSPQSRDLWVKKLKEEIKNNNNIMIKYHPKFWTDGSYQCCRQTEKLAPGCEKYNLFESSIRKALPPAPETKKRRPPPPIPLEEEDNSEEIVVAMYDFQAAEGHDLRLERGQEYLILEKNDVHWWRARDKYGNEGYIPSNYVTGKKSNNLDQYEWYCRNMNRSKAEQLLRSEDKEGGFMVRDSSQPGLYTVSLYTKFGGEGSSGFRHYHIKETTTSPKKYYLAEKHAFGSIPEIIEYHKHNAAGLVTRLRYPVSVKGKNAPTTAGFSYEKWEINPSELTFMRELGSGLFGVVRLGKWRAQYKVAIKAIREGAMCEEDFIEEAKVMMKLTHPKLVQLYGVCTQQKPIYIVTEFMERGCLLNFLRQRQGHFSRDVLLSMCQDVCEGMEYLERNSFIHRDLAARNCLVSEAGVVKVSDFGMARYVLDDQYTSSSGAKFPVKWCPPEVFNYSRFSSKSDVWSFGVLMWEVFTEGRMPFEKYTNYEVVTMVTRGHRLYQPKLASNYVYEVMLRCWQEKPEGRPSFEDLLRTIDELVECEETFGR
Kind of data set: TEC Invitrogen selectivity data (BI). As to conditions: Compound concentration 3.0 uM.

Data set [17] concerns the target Activated CDC42 kinase 1 (Homo sapiens) (UniProt Q07912). Briefly: TNK2 Invitrogen selectivity data (BI). As to conditions: Compound concentration 3.0 uM.

The structures appear in SMILES notation.

Sequence of Death-associated protein kinase 1 (Homo sapiens) (P53355 whole entry, looked up): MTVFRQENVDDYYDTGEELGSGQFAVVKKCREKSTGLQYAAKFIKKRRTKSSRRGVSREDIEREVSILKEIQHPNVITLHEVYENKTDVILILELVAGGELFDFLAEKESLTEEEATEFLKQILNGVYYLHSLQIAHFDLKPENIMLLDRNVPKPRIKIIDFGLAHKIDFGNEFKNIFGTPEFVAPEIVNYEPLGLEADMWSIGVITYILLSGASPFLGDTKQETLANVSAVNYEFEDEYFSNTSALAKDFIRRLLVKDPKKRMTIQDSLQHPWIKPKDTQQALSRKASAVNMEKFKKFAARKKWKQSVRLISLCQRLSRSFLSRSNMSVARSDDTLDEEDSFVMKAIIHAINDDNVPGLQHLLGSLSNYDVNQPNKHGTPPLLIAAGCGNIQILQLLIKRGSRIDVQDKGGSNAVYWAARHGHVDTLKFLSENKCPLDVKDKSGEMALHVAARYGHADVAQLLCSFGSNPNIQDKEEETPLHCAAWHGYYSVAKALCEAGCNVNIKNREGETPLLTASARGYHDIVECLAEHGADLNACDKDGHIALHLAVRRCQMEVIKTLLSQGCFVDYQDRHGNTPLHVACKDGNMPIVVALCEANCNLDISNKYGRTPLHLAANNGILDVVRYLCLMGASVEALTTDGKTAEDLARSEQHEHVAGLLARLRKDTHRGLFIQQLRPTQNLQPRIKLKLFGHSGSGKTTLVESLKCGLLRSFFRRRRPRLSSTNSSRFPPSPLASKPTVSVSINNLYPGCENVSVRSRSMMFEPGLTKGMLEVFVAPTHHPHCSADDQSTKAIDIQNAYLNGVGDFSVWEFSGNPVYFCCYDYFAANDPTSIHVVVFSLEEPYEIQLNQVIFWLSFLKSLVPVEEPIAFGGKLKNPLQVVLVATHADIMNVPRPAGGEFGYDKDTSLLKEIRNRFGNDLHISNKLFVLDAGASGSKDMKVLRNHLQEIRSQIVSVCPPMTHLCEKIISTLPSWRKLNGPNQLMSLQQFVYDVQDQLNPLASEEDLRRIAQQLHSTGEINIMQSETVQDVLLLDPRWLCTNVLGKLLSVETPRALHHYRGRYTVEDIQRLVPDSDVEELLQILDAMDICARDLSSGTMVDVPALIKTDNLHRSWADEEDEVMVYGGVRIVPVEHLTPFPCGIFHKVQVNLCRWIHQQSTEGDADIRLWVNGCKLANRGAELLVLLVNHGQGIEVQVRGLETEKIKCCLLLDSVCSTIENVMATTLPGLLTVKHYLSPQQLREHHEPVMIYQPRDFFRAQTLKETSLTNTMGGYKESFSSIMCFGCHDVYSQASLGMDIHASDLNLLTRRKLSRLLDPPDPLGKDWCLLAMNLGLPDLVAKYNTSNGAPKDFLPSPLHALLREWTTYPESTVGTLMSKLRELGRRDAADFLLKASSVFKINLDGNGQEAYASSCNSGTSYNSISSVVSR
Sequence of Adenosine receptor A1 (Homo sapiens) (P30542 whole entry): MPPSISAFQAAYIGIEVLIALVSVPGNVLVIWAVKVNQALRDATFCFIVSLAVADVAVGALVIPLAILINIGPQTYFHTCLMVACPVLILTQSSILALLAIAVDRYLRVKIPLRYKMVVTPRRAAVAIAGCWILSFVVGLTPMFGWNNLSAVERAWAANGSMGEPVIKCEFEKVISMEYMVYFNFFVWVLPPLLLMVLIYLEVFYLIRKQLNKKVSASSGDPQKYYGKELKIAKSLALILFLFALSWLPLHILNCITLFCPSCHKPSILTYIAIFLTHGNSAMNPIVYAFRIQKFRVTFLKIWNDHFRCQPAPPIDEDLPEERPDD
Sequence of Tyrosine-protein kinase ABL2 (Homo sapiens) (P42684 whole entry): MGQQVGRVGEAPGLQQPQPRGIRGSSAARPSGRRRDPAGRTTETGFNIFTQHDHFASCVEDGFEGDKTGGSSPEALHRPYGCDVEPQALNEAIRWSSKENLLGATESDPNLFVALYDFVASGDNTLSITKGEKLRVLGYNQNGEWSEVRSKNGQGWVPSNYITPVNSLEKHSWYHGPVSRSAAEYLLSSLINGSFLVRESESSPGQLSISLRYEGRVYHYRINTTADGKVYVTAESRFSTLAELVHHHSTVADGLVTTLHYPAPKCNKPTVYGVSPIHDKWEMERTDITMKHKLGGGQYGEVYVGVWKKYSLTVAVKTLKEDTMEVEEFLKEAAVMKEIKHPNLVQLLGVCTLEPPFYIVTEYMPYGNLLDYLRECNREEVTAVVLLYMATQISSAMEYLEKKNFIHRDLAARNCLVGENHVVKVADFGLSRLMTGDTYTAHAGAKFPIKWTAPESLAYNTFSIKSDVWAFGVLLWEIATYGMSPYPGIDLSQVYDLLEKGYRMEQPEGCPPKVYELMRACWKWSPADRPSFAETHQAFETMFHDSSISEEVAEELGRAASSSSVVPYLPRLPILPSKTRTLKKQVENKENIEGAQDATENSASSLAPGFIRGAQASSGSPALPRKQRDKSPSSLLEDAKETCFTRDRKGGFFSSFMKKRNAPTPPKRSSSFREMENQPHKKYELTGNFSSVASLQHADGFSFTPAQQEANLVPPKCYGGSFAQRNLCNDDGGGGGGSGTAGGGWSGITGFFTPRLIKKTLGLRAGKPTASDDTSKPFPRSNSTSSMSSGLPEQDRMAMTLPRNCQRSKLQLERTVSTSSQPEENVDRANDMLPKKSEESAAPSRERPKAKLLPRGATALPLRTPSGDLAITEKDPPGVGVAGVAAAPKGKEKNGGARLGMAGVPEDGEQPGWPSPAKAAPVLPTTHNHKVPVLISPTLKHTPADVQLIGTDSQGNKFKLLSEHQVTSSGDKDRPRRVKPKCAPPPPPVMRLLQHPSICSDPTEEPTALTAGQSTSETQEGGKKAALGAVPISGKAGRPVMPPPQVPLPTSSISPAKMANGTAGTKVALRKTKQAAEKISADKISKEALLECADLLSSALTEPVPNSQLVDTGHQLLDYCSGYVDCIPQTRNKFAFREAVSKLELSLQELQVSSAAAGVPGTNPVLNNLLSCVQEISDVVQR
Sequence of RAC-beta serine/threonine-protein kinase (Homo sapiens) (P31751 whole entry): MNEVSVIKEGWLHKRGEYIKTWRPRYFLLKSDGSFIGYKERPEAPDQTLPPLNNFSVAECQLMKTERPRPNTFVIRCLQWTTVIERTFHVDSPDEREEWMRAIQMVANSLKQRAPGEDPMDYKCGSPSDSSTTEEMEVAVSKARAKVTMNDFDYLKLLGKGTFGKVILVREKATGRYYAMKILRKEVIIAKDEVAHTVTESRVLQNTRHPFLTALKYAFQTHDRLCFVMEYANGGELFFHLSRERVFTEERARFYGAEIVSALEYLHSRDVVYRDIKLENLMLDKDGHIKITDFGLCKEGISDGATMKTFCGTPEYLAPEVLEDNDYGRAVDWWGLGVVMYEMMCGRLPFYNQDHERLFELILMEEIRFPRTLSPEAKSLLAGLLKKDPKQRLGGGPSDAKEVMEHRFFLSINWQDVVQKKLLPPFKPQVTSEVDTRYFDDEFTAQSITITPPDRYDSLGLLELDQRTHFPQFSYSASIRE
Sequence of 5-hydroxytryptamine receptor 1B (Rattus norvegicus) (P28564 whole entry): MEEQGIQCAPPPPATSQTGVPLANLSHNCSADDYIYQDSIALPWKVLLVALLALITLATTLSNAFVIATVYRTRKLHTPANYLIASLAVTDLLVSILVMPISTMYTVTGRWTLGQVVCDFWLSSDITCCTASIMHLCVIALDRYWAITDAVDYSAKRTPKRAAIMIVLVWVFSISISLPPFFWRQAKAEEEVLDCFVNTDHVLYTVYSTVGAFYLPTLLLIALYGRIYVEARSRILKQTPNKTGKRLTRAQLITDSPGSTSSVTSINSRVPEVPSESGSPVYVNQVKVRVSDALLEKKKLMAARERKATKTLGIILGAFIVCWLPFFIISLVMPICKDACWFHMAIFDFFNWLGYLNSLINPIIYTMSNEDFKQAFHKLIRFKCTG
Sequence of Activated CDC42 kinase 1 (Homo sapiens) (Q07912 whole entry, looked up): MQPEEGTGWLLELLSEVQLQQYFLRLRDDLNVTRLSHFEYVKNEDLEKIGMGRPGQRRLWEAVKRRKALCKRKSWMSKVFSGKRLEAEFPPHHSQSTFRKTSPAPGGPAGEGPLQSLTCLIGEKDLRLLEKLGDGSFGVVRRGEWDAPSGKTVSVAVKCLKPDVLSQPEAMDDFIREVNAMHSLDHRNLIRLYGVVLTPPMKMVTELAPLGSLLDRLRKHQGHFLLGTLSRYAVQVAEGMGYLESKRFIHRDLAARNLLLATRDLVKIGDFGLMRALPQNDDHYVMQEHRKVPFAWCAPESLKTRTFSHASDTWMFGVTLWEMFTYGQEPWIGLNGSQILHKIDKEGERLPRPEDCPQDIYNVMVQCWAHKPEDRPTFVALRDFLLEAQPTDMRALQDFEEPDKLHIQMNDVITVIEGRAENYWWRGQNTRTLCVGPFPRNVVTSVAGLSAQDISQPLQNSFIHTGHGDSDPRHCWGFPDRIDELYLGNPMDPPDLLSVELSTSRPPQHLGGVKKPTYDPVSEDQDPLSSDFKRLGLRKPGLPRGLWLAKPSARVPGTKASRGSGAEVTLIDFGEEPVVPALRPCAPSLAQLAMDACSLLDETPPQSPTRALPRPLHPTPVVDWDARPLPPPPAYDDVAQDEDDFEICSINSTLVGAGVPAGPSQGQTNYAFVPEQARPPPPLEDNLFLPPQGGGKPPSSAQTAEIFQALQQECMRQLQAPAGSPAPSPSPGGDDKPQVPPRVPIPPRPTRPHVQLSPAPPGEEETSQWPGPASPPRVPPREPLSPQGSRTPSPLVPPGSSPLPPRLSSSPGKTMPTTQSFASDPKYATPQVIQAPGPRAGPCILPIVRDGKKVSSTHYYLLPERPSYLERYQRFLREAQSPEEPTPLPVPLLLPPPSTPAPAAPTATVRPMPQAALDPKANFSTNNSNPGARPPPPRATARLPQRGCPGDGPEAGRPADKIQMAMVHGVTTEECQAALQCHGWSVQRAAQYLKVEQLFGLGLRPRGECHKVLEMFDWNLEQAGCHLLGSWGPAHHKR

For `CN(C)C(=O)Cn1cc(-c2nc([C@@](C)(c3ccc(-c4cnc(N)nc4)cc3)C3CC3)no2)cn1` [BI 665915], the residual activity in data set [1] is 141%; in [2], 95%; in data set [3] it was 102%; in data set [4], 75%; in [6], 85%; in [7] it was 102%. The residual activity was 79.5% in data set [8]; 98% in data set [9]; 99.5% in data set [10]; 100% in [11]; 98% in data set [12]; 104% in data set [13]. In addition, the residual activity in data set [14] is 91%; in data set [15], 85%; in data set [16] it was 103%; in data set [17], 99%. Also, the activity at 10 µM in data set [5] was 98% (not active).
